In ChEMBL document CHEMBL5365556 (ACS Med Chem Lett, 2023):

System: THP-1
Assay: Cytotoxicity against human THP-1 cells assessed as reduction in cell viability measured after 24 hrs by Celltiter-Glo assay
Format: functional, cell-based
Settings: THP-1, 24 h

SMILES: CCN(CC)C(=S)SSC(=S)N(CC)CC
- IC50: 7 µM
